AC50 data for 38 compounds are collected here from patent US20250171438A1 (Agios Pharmaceuticals, Inc., priority 2022, published 2025).

The assay addresses T1, human PAH with the R408W mutation (Homo sapiens, UniProt P00439, R408W).
T1 construct: expressed in transfected cells
T1 sequence (P00439 1-452 R408W): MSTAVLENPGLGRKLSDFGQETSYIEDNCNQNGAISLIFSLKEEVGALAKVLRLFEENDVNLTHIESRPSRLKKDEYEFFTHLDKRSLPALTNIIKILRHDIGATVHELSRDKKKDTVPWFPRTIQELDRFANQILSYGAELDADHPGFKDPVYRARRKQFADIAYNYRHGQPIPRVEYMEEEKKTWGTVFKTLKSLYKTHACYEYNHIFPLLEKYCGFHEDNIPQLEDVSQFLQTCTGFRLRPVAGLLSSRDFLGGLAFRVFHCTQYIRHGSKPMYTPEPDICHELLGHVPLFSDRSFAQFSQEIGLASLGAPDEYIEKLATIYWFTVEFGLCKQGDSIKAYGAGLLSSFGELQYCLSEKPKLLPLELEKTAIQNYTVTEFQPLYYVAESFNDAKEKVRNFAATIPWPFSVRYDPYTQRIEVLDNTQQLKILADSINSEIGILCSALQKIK
Nature of the assay: Cell Based Phenylalanine Flux Assay. Also on record: scale not given here. Particulars: A375 cells expressing human R408W PAH, 13C-Tyrosine by LC-MS, average where tested multiple times.

[1] abbreviates: 24 hrs compound incubation, read-out: AC50.
[2] abbreviates: 24 hrs with compound, read-out: AC50.

Where two headings read alike, the source gives them in different places.

For the compound `O=C(c1ncc(Cl)s1)N1CCc2[nH]cnc2[C@@H]1c1nc2c(F)cccc2s1` [Example 1220, (R)-(5-chlorothiazol-2-yl)(4-(4-fluorobenzo[d]thiazol-2-yl)-6,7-dihydro-1H-imidazo[4,5-c]pyridin-5(4H)-yl)methanone], the AC50 under setting [1] was 1000 to 5000 nM. `O=C(c1cnc(C2CCC(F)(F)CC2)s1)N1CCc2[nH]cnc2C1c1nc2ccccc2s1` (centres unmarked): the AC50 under setting [2] fell in the range of 500 to 1000 nM. With `O=C(CCc1ncc(Cl)s1)N1CCc2[nH]cnc2[C@H]1c1nc2ccccc2s1` [Example 1025], the AC50 under setting [1] lay in the range of 1000 to 5000 nM.

As for `O=C(Cc1nc(C(F)(F)F)cs1)N1CCc2[nH]cnc2C1c1nc2ccc(Br)cc2[nH]1` (centres unmarked), under setting [2], the AC50 was > 5000 nM.

In the case of `CC[C@@H](O)c1nc(C(F)F)c(C(=O)N2CCc3[nH]cnc3[C@@H]2c2nc3c(F)cccc3s2)o1` [Example 2068, (4-(difluoromethyl)-2-((R)-1-hydroxypropyl)oxazol-5-yl)((R)-4-(4-fluorobenzo[d]thiazol-2-yl)-6,7-dihydro-1H-imidazo[4,5-c]pyridin-5(4H)-yl)methanone], under setting [1], the AC50 was 500 to 1000 nM. With `Cc1c(-c2nnc(C(=O)N3CCc4[nH]cnc4[C@H]3c3nc4ccccc4s3)o2)cnn1C` [Example 1845], the AC50 under setting [1] was < 500 nM.

Turning to `Cn1cc(-c2nc(C(F)(F)F)c(C(=O)N3CCc4[nH]cnc4C3c3nc4ccccc4s3)o2)cn1` (centres unmarked), the AC50 result (24 hrs with compound) is recorded as “E, E”.

In the case of `CC(O)c1nc(Br)c(C(=O)N2CCc3[nH]cnc3[C@@H]2c2nc3c(F)cccc3s2)o1` (single isomer, unassigned) [Example 2060], the AC50 under setting [1] lay within 500 to 1000 nM. With `COC(C)(C)c1nc(C)c(C(=O)N2CCc3[nH]cnc3[C@H]2c2nc3c(F)cccc3s2)o1` [Example 1916, (S)-(4-(4-fluorobenzo[d]thiazol-2-yl)-6,7-dihydro-1H-imidazo[4,5-c]pyridin-5(4H)-yl)(2-(2-methoxypropan-2-yl)-4-methyloxazol-5-yl)methanone], the AC50 under setting [1] was in the range of 1000 to 5000 nM.

Turning to `Cn1nc(Cl)cc1C(=O)N1CCc2[nH]cnc2[C@H]1c1nc2c(F)cccc2s1` [Example 1721], the AC50 under setting [1] was < 500 nM. For the compound `NC(=O)c1ncoc1C(=O)N1CCc2[nH]cnc2C1c1nc2ccccc2s1` (centres unmarked), the AC50 under setting [2] was in the range of 1000 to 5000 nM. As to `O=C(c1cnn2ccc(Cl)cc12)N1CCc2[nH]cnc2[C@@H]1c1nc2c(F)cccc2s1` [Example 1196, (R)-(5-chloropyrazolo[1,5-a]pyridin-3-yl)(4-(4-fluorobenzo[d]thiazol-2-yl)-6,7-dihydro-1H-imidazo[4,5-c]pyridin-5(4H)-yl)methanone], the concentration at half-maximal activity (AC50) under setting [1] was 1000 to 5000 nM. In the case of `O=C(c1oc(CN2CCOCC2)nc1C(F)(F)F)N1CCc2[nH]cnc2[C@@H]1c1nc2ccccc2s1` [Example 1628, (R)-(4-(benzo[d]thiazol-2-yl)-6,7-dihydro-1H-imidazo[4,5-c]pyridin-5(4H)-yl)(2-(morpholinomethyl)-4-(trifluoromethyl)oxazol-5-yl)methanone], under setting [1], the AC50 is < 500 nM. Consider `O=C(c1nncs1)N1CCc2[nH]cnc2[C@H]1c1nc2c(F)cccc2s1` [Example 1270, (S)-(4-(4-fluorobenzo[d]thiazol-2-yl)-6,7-dihydro-1H-imidazo[4,5-c]pyridin-5(4H)-yl)(1,3,4-thiadiazol-2-yl)methanone], for which the AC50 under setting [1] was 500 to 1000 nM. Same read-out and setting: as for `CC(C)(O)c1cc(C(=O)N2CCc3[nH]cnc3[C@@H]2c2nc3c(F)cccc3s2)on1` [Example 2169, (R)-(4-(4-fluorobenzo[d]thiazol-2-yl)-6,7-dihydro-1H-imidazo[4,5-c]pyridin-5(4H)-yl)(3-(2-hydroxypropan-2-yl)isoxazol-5-yl)methanone], the figure is 1000 to 5000 nM; as for `O=C(c1cnc(NC2CC2)s1)N1CCc2[nH]cnc2[C@@H]1c1nc2ccccc2s1` [Example 1184, (R)-(4-(benzo[d]thiazol-2-yl)-6,7-dihydro-1H-imidazo[4,5-c]pyridin-5(4H)-yl)(2-(cyclopropylamino)thiazol-5-yl)methanone], 1000 to 5000 nM. Consider `CS(=O)(=O)N1CC(C(=O)N2CCc3[nH]cnc3C2c2nc3ccccc3s2)C1` (centres unmarked), for which the AC50 under setting [2] fell in the range of 1000 to 5000 nM. For the compound `Cc1ccc2sc([C@@H]3c4nc[nH]c4CCN3C(=O)c3cnco3)nc2c1` [Example 2173, (S)-(4-(5-methylbenzo[d]thiazol-2-yl)-6,7-dihydro-1H-imidazo[4,5-c]pyridin-5(4H)-yl)(oxazol-5-yl)methanone], the AC50 under setting [1] is 500 to 1000 nM.

Regarding `Cc1ccc2c(C(=O)N3CCc4[nH]cnc4C3c3nc4ccc(Cl)cc4[nH]3)cnn2c1` (centres unmarked), the AC50 under setting [2] was in the range of 1000 to 5000 nM. “(R)-(4-(benzo[d]thiazol-2-yl)-6,7-dihydro-1H-imidazo[4,5-c]pyridin-5(4H)-yl)(2-(1-methyl-3-(trifluoromethyl)-1H-pyrazol-4-yl)thiazol-5-yl)methanone [Example 1390]”: the AC50 under setting [1] lay within 1000 to 5000 nM. On to `COCc1cc(C(=O)N2CCc3[nH]cnc3C2c2nc3c(F)cccc3s2)[nH]n1` (centres unmarked), for which, under setting [2], the AC50 is > 5000 nM. For `O=C(c1nnc(-c2ccccn2)o1)N1CCc2[nH]cnc2[C@H]1c1nc2ccc(F)cc2s1` [Example 1720, (S)-(4-(6-fluorobenzo[d]thiazol-2-yl)-6,7-dihydro-1H-imidazo[4,5-c]pyridin-5(4H)-yl)(5-(pyridin-2-yl)-1,3,4-oxadiazol-2-yl)methanone], under setting [1], the AC50 was < 500 nM. Regarding `O=C(c1cnc(-c2ccccn2)o1)N1CCc2[nH]cnc2[C@H]1c1nc2ccccc2[nH]1` [(S)-(4-(1H-benzo[d]imidazol-2-yl)-6,7-dihydro-1H-imidazo[4,5-c]pyridin-5(4H)-yl)(2-(pyridin-2-yl)oxazol-5-yl)methanone], under setting [2], the AC50 fell in the range of 1000 to 5000 nM. Turning to `Brc1ccc2nc([C@@H]3c4nc[nH]c4CCN3Cc3nccs3)[nH]c2c1` [Example 971, (S)-2-((4-(6-bromo-1H-benzo[d]imidazol-2-yl)-6,7-dihydro-1H-imidazo[4,5-c]pyridin-5(4H)-yl)methyl)thiazole], the AC50 under setting [1] was < 500 nM.

With `Cn1cnc(C(=O)N2CCc3[nH]cnc3C2c2nc3ccccc3s2)n1` (centres unmarked), under setting [2], the AC50 was > 5000 nM.

As for `Cc1nc(C(C)(C)C#N)oc1C(=O)N1CCc2[nH]cnc2[C@H]1c1nc2c(F)cccc2s1` [Example 1998, (S)-2-(5-(4-(4-fluorobenzo[d]thiazol-2-yl)-4,5,6,7-tetrahydro-1H-imidazo[4,5-c]pyridine-5-carbonyl)-4-methyloxazol-2-yl)-2-methylpropanenitrile], the AC50 under setting [1] is < 500 nM.

Consider `O=C(c1cnc(N2CCCC2)s1)N1CCc2[nH]cnc2[C@@H]1c1nc2ccccc2s1` [Example 1324, (R)-(4-(benzo[d]thiazol-2-yl)-6,7-dihydro-1H-imidazo[4,5-c]pyridin-5(4H)-yl)(2-(pyrrolidin-1-yl)thiazol-5-yl)methanone], for which the AC50 under setting [1] is 1000 to 5000 nM. On to `O=C(c1cnco1)N1CCc2[nH]cnc2[C@@H]1c1nc2c(F)cccc2s1` [Example 1224, (R)-(4-(4-fluorobenzo[d]thiazol-2-yl)-6,7-dihydro-1H-imidazo[4,5-c]pyridin-5(4H)-yl)(oxazol-5-yl)methanone], for which, under setting [1], the AC50 was in the range of 1000 to 5000 nM.

As for `CC(C)(O)c1nc(C(F)(F)F)c(C(=O)N2CCc3[nH]cnc3[C@@H]2c2nc3c(F)cccc3s2)o1` [Example 1542, (R)-(4-(4-fluorobenzo[d]thiazol-2-yl)-6,7-dihydro-1H-imidazo[4,5-c]pyridin-5(4H)-yl)(2-(2-hydroxypropan-2-yl)-4-(trifluoromethyl)oxazol-5-yl)methanone], the AC50 under setting [1] is < 500 nM. Take `O=C(c1nnc(N2CCOCC2)o1)N1CCc2[nH]cnc2[C@H]1c1nc2ccccc2s1` [Example 1585]: the AC50 under setting [1] is 500 to 1000 nM. Regarding `CN(C)Cc1nc(C(=O)N2CCc3[nH]cnc3C2c2nc3ccccc3s2)no1` (centres unmarked), the AC50 under setting [2] is > 5000 nM. With `O=C(C1CC1)N1CCc2[nH]cnc2[C@H]1c1nc2ccc(Cl)cc2[nH]1` [Example 960, (S)-(4-(6-chloro-1H-benzo[d]imidazol-2-yl)-6,7-dihydro-1H-imidazo[4,5-c]pyridin-5(4H)-yl)(cyclopropyl)methanone], the AC50 under setting [1] was in the range of 1000 to 5000 nM. On the same count and under the same terms, as for `CCn1cnnc1C(=O)N1CCc2[nH]cnc2[C@H]1c1nc2c(F)cccc2s1` [Example 2044], the figure is 500 to 1000 nM; as for `O=C(c1oc(CN2CCOCC2)nc1C(F)(F)F)N1CCc2[nH]cnc2[C@H]1c1nc2ccccc2s1` [Example 1627], < 500 nM; as for `CC(C)(F)c1ncc(C(=O)N2CCc3[nH]cnc3[C@H]2c2nc3c(F)cccc3s2)s1` [Example 1486, (S)-(4-(4-fluorobenzo[d]thiazol-2-yl)-6,7-dihydro-1H-imidazo[4,5-c]pyridin-5(4H)-yl)(2-(2-fluoropropan-2-yl)thiazol-5-yl)methanone], < 500 nM. As to `O=C(c1cn(-c2ccccn2)nc1Cl)N1CCc2[nH]cnc2[C@H]1c1nc2ccccc2s1` [Example 1907], the AC50 under setting [1] was 500 to 1000 nM.

As to `O=C(c1oc(C2CC(F)(F)C2)nc1C(F)F)N1CCc2[nH]cnc2[C@@H]1c1nc2ccccc2s1` [Example 1785, (R)-(4-(benzo[d]thiazol-2-yl)-6,7-dihydro-1H-imidazo[4,5-c]pyridin-5(4H)-yl)(2-(3,3-difluorocyclobutyl)-4-(difluoromethyl)oxazol-5-yl)methanone], the AC50 under setting [1] was < 500 nM.

Consider `O=C(c1cnn2c(Br)cccc12)N1CCc2[nH]cnc2[C@@H]1c1nc2ccccc2[nH]1` (single isomer, unassigned), for which the AC50 under setting [2] was > 5000 nM.

For orientation: AC50 means the midpoint of the concentration-response curve, whichever way the signal moves.
